Test results taken from ChEMBL document CHEMBL3600371, “Design and synthesis of imidazole N-H substituted amide prodrugs as inhibitors of hepatitis C virus replication” (Bioorg Med Chem Lett, 2015).

Legend:
[1] = Stability of the compound in water at pH 2; type: physicochemical; conditions: buffer
[2] = Stability of the compound in water at pH 7; type: physicochemical; conditions: buffer
[3] = Stability of the compound in blood (unknown origin); type: ADME, tissue-based
[4] = tested on: Rattus norvegicus; assay: Drug level in Sprague-Dawley rat treated with ((S,S)-5,5'-([1,1'-Biphenyl]-4,4'-diyl)bis(2-((S)-1-((S)-2-((methoxycarbonyl)amino)-3-methylbutanoyl)pyrrolidin-2-yl)-1H-imidazole-5,1-diyl))bis(2-oxoethane-2,1-diyl)diacetate at 5 mg/kg, po measured over 9 hrs; type: ADME, organism-based; conditions: in vivo
[5] = Cmax in Sprague-Dawley rat at 5 mg/kg, po; type: ADME, organism-based; design: dose 5 mg/kg, route oral; conditions: in vivo
[6] = Tmax in Sprague-Dawley rat at 5 mg/kg, po; type: ADME, organism-based; conditions: in vivo
[7] = AUC (0 to 8 hrs) in Sprague-Dawley rat at 5 mg/kg, po; type: ADME, organism-based; design: time < 8 hr, dose 5 mg/kg, route oral; conditions: in vivo
[8] = AUC (0 to infinity) in Sprague-Dawley rat at 5 mg/kg, po; type: ADME, organism-based; design: dose 5 mg/kg, route oral, time infinity; conditions: in vivo
[9] = Mean residence time in Sprague-Dawley rat at 5 mg/kg, po; type: ADME, organism-based; conditions: in vivo
[10] = Half life in Sprague-Dawley rat at 5 mg/kg, po; type: ADME, organism-based; conditions: in vivo
[11] = tested on: Hepatitis C virus; assay: microbe, parasite or virus in culture; conditions: JFH-1, Huh-7
Description: Antiviral activity against HCV genotype 1b JFH-1 infected in human HuH7 cells assessed as inhibition of viral replication

[12] = tested on: Hepatitis C virus; assay: Antiviral activity against HCV genotype 1b replicon infected in human HuH7 cells assessed as inhibition of viral RNA replication by luciferase reporter assay; type: functional, organism-based, Hepacivirus hominis; conditions: Huh-7
[13] = tested on: Rattus norvegicus; assay: Prodrug conversion in Sprague-Dawley rat assessed as formation of daclatasvir at 5 mg/kg, po measured over 9 hrs; type: ADME, organism-based; conditions: in vivo
[14] = Half life in blood (unknown origin); type: ADME, tissue-based
[15] = tested on: Rattus norvegicus; assay: Cmax in Sprague-Dawley rat assessed as daclatasvir at 5 mg/kg, po; type: ADME, organism-based; design: dose 5 mg/kg, route oral; conditions: in vivo
[16] = tested on: Rattus norvegicus; assay: Tmax in Sprague-Dawley rat assessed as daclatasvir at 5 mg/kg, po; type: ADME, organism-based; conditions: in vivo
[17] = tested on: Rattus norvegicus; assay: AUC (0 to 8 hrs) in Sprague-Dawley rat assessed as daclatasvir at 5 mg/kg, po; type: ADME, organism-based; design: time < 8 hr, dose 5 mg/kg, route oral; conditions: in vivo
[18] = tested on: Rattus norvegicus; assay: AUC (0 to infinity) in Sprague-Dawley rat assessed as daclatasvir at 5 mg/kg, po; type: ADME, organism-based; design: dose 5 mg/kg, time infinity, route oral; conditions: in vivo
[19] = tested on: Rattus norvegicus; assay: Mean residence time in Sprague-Dawley rat assessed as daclatasvir at 5 mg/kg, po; type: ADME, organism-based; conditions: in vivo
[20] = tested on: Rattus norvegicus; assay: Half life in Sprague-Dawley rat assessed as daclatasvir at 5 mg/kg, po; type: ADME, organism-based; conditions: in vivo
[21] = tested on: Hepatitis C virus; assay: Antiviral activity against HCV genotype 1 in patient assessed as virological response rate; type: functional, Hepacivirus hominis

Compound | EC50 [12] [nM] | further results
COC(=O)N[C@H](C(=O)N1CCC[C@H]1c1nc(-c2ccc(-c3ccc(-c4c[nH]c([C@@H]5CCCN5C(=O)[C@@H](NC(=O)OC)C(C)C)n4)cc3)cc2)c[nH]1)C(C)C |  | Stability [1]: Stable; Stability [2]: Stable; Stability [3]: Stable; Drug metabolism [4]: metabolite_detected; Cmax [5]: 484 ng/mL; Tmax [6]: 3.01 h; AUC(0-t) at 8 h [7]: 3210 ng·h/mL; AUC(0-inf) [8]: 3320 ng·h/mL; MRT [9]: 3.43 h; half-life [10]: 1.66 h; EC50 [11]: 0.028 nM
COC(=O)N[C@H](C(=O)N1CCC[C@H]1c1ncc(-c2ccc(-c3ccc(-c4cnc([C@@H]5CCCN5C(=O)[C@@H](NC(=O)OC)C(C)C)n4C(C)=O)cc3)cc2)n1C(C)=O)C(C)C | 12 | 
CCC(=O)n1c(-c2ccc(-c3ccc(-c4cnc([C@@H]5CCCN5C(=O)[C@@H](NC(=O)OC)C(C)C)n4C(=O)CC)cc3)cc2)cnc1[C@@H]1CCCN1C(=O)[C@@H](NC(=O)OC)C(C)C | 39 | 
CCCC(=O)n1c(-c2ccc(-c3ccc(-c4cnc([C@@H]5CCCN5C(=O)[C@@H](NC(=O)OC)C(C)C)n4C(=O)CCC)cc3)cc2)cnc1[C@@H]1CCCN1C(=O)[C@@H](NC(=O)OC)C(C)C | 85 | 
COC(=O)N[C@H](C(=O)N1CCC[C@H]1c1ncc(-c2ccc(-c3ccc(-c4cnc([C@@H]5CCCN5C(=O)[C@@H](NC(=O)OC)C(C)C)n4C(=O)C(C)C)cc3)cc2)n1C(=O)C(C)C)C(C)C | 131 | 
COC(=O)N[C@H](C(=O)N1CCC[C@H]1c1ncc(-c2ccc(-c3ccc(-c4cnc([C@@H]5CCCN5C(=O)[C@@H](NC(=O)OC)C(C)C)n4C(=O)C(C)(C)C)cc3)cc2)n1C(=O)C(C)(C)C)C(C)C | > 100000 | 
COC(=O)N[C@H](C(=O)N1CCC[C@H]1c1ncc(-c2ccc(-c3ccc(-c4cnc([C@@H]5CCCN5C(=O)[C@@H](NC(=O)OC)C(C)C)n4C(=O)CC(C)(C)C)cc3)cc2)n1C(=O)CC(C)(C)C)C(C)C | > 100000 | 
CCCCC(=O)n1c(-c2ccc(-c3ccc(-c4cnc([C@@H]5CCCN5C(=O)[C@@H](NC(=O)OC)C(C)C)n4C(=O)CCCC)cc3)cc2)cnc1[C@@H]1CCCN1C(=O)[C@@H](NC(=O)OC)C(C)C | 231 | 
CCCCCC(=O)n1c(-c2ccc(-c3ccc(-c4cnc([C@@H]5CCCN5C(=O)[C@@H](NC(=O)OC)C(C)C)n4C(=O)CCCCC)cc3)cc2)cnc1[C@@H]1CCCN1C(=O)[C@@H](NC(=O)OC)C(C)C | 324 | 
CCCCCCC(=O)n1c(-c2ccc(-c3ccc(-c4cnc([C@@H]5CCCN5C(=O)[C@@H](NC(=O)OC)C(C)C)n4C(=O)CCCCCC)cc3)cc2)cnc1[C@@H]1CCCN1C(=O)[C@@H](NC(=O)OC)C(C)C | 542 | 
COC(=O)N[C@H](C(=O)N1CCC[C@H]1c1ncc(-c2ccc(-c3ccc(-c4cnc([C@@H]5CCCN5C(=O)[C@@H](NC(=O)OC)C(C)C)n4C(=O)CC(C)CC(C)(C)C)cc3)cc2)n1C(=O)CC(C)CC(C)(C)C)C(C)C (some centres not stated) | > 100000 | 
COC(=O)N[C@H](C(=O)N1CCC[C@H]1c1ncc(-c2ccc(-c3ccc(-c4cnc([C@@H]5CCCN5C(=O)[C@@H](NC(=O)OC)C(C)C)n4C(=O)CC4CCCCC4)cc3)cc2)n1C(=O)CC1CCCCC1)C(C)C | 110 | 
COC(=O)N[C@H](C(=O)N1CCC[C@H]1c1ncc(-c2ccc(-c3ccc(-c4cnc([C@@H]5CCCN5C(=O)[C@@H](NC(=O)OC)C(C)C)n4C(=O)CCC4CCCCC4)cc3)cc2)n1C(=O)CCC1CCCCC1)C(C)C | 124 | 
COC(=O)N[C@H](C(=O)N1CCC[C@H]1c1ncc(-c2ccc(-c3ccc(-c4cnc([C@@H]5CCCN5C(=O)[C@@H](NC(=O)OC)C(C)C)n4C(=O)CCC4CCCC4)cc3)cc2)n1C(=O)CCC1CCCC1)C(C)C | 195 | 
COC(=O)N[C@H](C(=O)N1CCC[C@H]1c1ncc(-c2ccc(-c3ccc(-c4cnc([C@@H]5CCCN5C(=O)[C@@H](NC(=O)OC)C(C)C)n4C(=O)OC)cc3)cc2)n1C(=O)OC)C(C)C | > 100000 | 
CCOC(=O)n1c(-c2ccc(-c3ccc(-c4cnc([C@@H]5CCCN5C(=O)[C@@H](NC(=O)OC)C(C)C)n4C(=O)OCC)cc3)cc2)cnc1[C@@H]1CCCN1C(=O)[C@@H](NC(=O)OC)C(C)C | > 100000 | 
CCCOC(=O)n1c(-c2ccc(-c3ccc(-c4cnc([C@@H]5CCCN5C(=O)[C@@H](NC(=O)OC)C(C)C)n4C(=O)OCCC)cc3)cc2)cnc1[C@@H]1CCCN1C(=O)[C@@H](NC(=O)OC)C(C)C | > 100000 | 
COC(=O)N[C@H](C(=O)N1CCC[C@H]1c1ncc(-c2ccc(-c3ccc(-c4cnc([C@@H]5CCCN5C(=O)[C@@H](NC(=O)OC)C(C)C)n4C(=O)OC(C)C)cc3)cc2)n1C(=O)OC(C)C)C(C)C | > 100000 | 
COC(=O)N[C@H](C(=O)N1CCC[C@H]1c1ncc(-c2ccc(-c3ccc(-c4cnc([C@@H]5CCCN5C(=O)[C@@H](NC(=O)OC)C(C)C)n4C(=O)OC(C)(C)C)cc3)cc2)n1C(=O)OC(C)(C)C)C(C)C | > 100000 | 
COC(=O)N[C@H](C(=O)N1CCC[C@H]1c1ncc(-c2ccc(-c3ccc(-c4cnc([C@@H]5CCCN5C(=O)[C@@H](NC(=O)OC)C(C)C)n4C(=O)OCC(C)=O)cc3)cc2)n1C(=O)OCC(C)=O)C(C)C | > 100000 | 
COC(=O)N[C@H](C(=O)N1CCC[C@H]1c1ncc(-c2ccc(-c3ccc(-c4cnc([C@@H]5CCCN5C(=O)[C@@H](NC(=O)OC)C(C)C)n4C(=O)COC(C)=O)cc3)cc2)n1C(=O)COC(C)=O)C(C)C | 0.08 | Stability [1]: Stable; Stability [2]: Stable; Drug metabolism [13]: metabolite_detected; half-life [14]: < 0.5 h; Cmax [15]: 341 ng/mL; Tmax [16]: 4.05 h; AUC [17]: 3330 ng·h/mL; AUC [18]: 3440 ng·h/mL; MRT [19]: 4.01 h; t1/2 [20]: 2.93 h
COC(=O)N[C@H](C(=O)N1CCC[C@H]1c1ncc(-c2ccc(-c3ccc(-c4cnc([C@@H]5CCCN5C(=O)[C@@H](NC(=O)OC)C(C)C)n4C(=O)c4ccccc4)cc3)cc2)n1C(=O)c1ccccc1)C(C)C | 155 | 
COC(=O)N[C@H](C(=O)N1CCC[C@H]1c1ncc(-c2ccc(-c3ccc(-c4cnc([C@@H]5CCCN5C(=O)[C@@H](NC(=O)OC)C(C)C)n4C(=O)c4ccc(Cl)cc4)cc3)cc2)n1C(=O)c1ccc(Cl)cc1)C(C)C | 77 | 
COC(=O)N[C@H](C(=O)N1CCC[C@H]1c1ncc(-c2ccc(-c3ccc(-c4cnc([C@@H]5CCCN5C(=O)[C@@H](NC(=O)OC)C(C)C)n4C(=O)c4ccc(C)cc4)cc3)cc2)n1C(=O)c1ccc(C)cc1)C(C)C | 231 | 
COC(=O)N[C@H](C(=O)N1CCC[C@H]1c1ncc(-c2ccc(-c3ccc(-c4cnc([C@@H]5CCCN5C(=O)[C@@H](NC(=O)OC)C(C)C)n4C(=O)Cc4ccccc4)cc3)cc2)n1C(=O)Cc1ccccc1)C(C)C | 687 | 
COC(=O)N[C@H](C(=O)N1CCC[C@H]1c1ncc(-c2ccc(-c3ccc(-c4cnc([C@@H]5CCCN5C(=O)[C@@H](NC(=O)OC)C(C)C)n4C(=O)CCc4ccccc4)cc3)cc2)n1C(=O)CCc1ccccc1)C(C)C | 988 | 
NC(=O)c1ncn([C@@H]2O[C@H](CO)[C@@H](O)[C@H]2O)n1 [RIBAVIRIN] |  | Activity [21]: <50%
